Measurements reported in patent publication US11052142B2, “Modified endotoxic bacteria lipopolysaccharide (variants), combination of modified lipopolysaccharides (variants) and, containing same, a vaccine (variants) and a pharmaceutical composition (variants)” (priority 2013, dated 2021).
Like-named read-outs stand apart in the source and are kept apart here.

Assays:
TNF-α [1] = details: mice, i.v., extrapolated from graphs of RU 2154068, cited from earlier work
TNF-α [2] = assay: In vivo production of TNF-α in blood serum after i.v. administration to mice (data from patent RU 2154068)
Description: In this case the vertical axis represents the values for TNF-α concentrations (pg/mL) and the values for IL-6 concentrations (ng/mL). The horizontal axis represents (A and B) the values for injection dose of preparation OM174 (mg/kg) to mice. The vertical axis (C) represents the value for injection dose of LPS ([…]; positive control) and saline solution (0.85% NaCl solution; negative control) to mice.
The solid lines represent the lines of extrapolation for the values of doses for OM174: 0.20; 2.00; 2.01; 3.40 and 28.10 (A and B) and the values of doses for Westphal LPS E coli O:111B4: 0.002; 0.020; 0.200 and 2.000 (C).
According to data from patent RU 2154068, tri-acylated and tetra-acylated lipids A of E. coli, H. influenzae and P. aeruginosa are powerful inducers of mediator of endotoxin reaction—TNF-α. Table 1 represents data extrapolated from graphs on FIG. 1 (A, B, C) relating to in vivo TNF-α production in serum after i.v. administration of tri-acylated lipid A (3-acLA) of E. coli OM-174 and Westphal LPS E. coli O:111B4 to mice. Only 10-fold difference was detected for induction of TNF-α in vivo between E. coli OM-174 tri-acylated lipid A and commercially available endotoxin Westphal LPS E. coli O:111 B4, it is evidence that there is essential endotoxicity of E. coli tri-acetylated lipid A, excluding its use both as vaccine or vaccine component (adjuvant).

## CCCCCCCCCCCC(=O)O[C@H](CCCCCCCCCCC)CC(=O)N[C@H]1[C@H](OC[C@H]2O[C@H](OP(=O)(O)O)[C@H](NC(=O)C[C@H](O)CCCCCCCCCCC)[C@@H](O)[C@@H]2O)O[C@H](CO)[C@@H](OP(=O)(O)O)[C@@H]1O [3-acLA E. coli - OM174]
TNF-α [1]; dose 0.2 mg/kg
  TNF-α concentration: 328 pg/mL
TNF-α [1]; dose 2.0 mg/kg
  TNF-α concentration: 1644 pg/mL
TNF-α [1]; dose 2.01 mg/kg
  TNF-α concentration: 1416 pg/mL
TNF-α [1]; dose 3.4 mg/kg
  TNF-α concentration: 2000 pg/mL
TNF-α [1]; dose 28.1 mg/kg
  TNF-α concentration: 2750 pg/mL
TNF-α [2]
  difference for induction of TNF-α in vivo versus Westphal LPS E. coli O:111 B4: 10 fold
